Laboratory results as given in article PMC11681159, “Bee pollen peptides as potent tyrosinase inhibitors with anti-melanogenesis effects in murine b16f10 melanoma cells and zebrafish embryos” (Scientific Reports, 2024).
Entries after “also recorded” stand apart in the source; their conditions may differ. Ends that are not written are not given here.

Key:
Format in all cases: cell-based, mouse
Trp-2 = test: Western blot, TRP-2 protein; conditions: B16F10, 48 h
Protocol: (§1) Following this process, the cells were lysed using NP40 Cell Lysis Buffer with protease inhibitor cocktail supplementation. Next, 12% sodium dodecyl sulfate poly-acrylamide (SDS-PAGE) gel electrophoresis was used to extract equal quantities of protein from each sample, with subsequent transfer to PVD (polyvinylidene fluoride) membranes (Millipore, Bedford, MA, USA). The membrane was blocked overnight with 3% skimmed milk (w/v) in TBST with 0.5% Tween 20 at 4 °C and then washed thrice in TBST. The rabbit polyclonal anti-TYR antibody (dilution 1:1000), anti-TRP-1 antibody (dilution 1:1000), anti-TRP-2 antibody and anti-MITF antibody (dilution 1:1000) obtained from Abcam (USA), were used respectively to detect the TYR, TRP-1, TRP-2, and MITF bands. After thrice washing again in TBST, secondary antibodies (dilution 1:5000) were added to the membranes for 1 h of incubation at room temperature before another triplicate washing in TBST. Enhanced chemiluminescence horseradish peroxidase (HRP) substrates (GeneDirex, Taiwan) were then used in line with the guidance of the manufacturer to detect bound antibodies, while β-actin antibody was employed to evaluate the loading control. Gel band detection was performed using ImageJ software (version 1.54), available at https://imagej.net/ij/. The software facilitated the identification and quantification of protein expression levels.

[1] = tested on: TYR in B16F10 melanoma cells; test: Cellular TYR assay; conditions: VY-9 1.6 µM, 48 h, L-DOPA, 490 nm
Protocol: In order to assess the rate of oxidation for L-DOPA, culture flasks were used to first grow B16F10 cells (1 × 10^5 cells/flask) for 24 h. […] Cell harvesting was conducted by trypsinization and the cells were then rinsed twice in cold PBS. In the next step, PBS buffer (0.2 mL, pH 6.8) which contained 1% (w/v) Triton X-100 and 1 mM PMSF was introduced to the lysed cell pellets, whereupon amounts of 100 µL of the lysed cells were added to a 96-well plate by pipette, along with 100 µL of 2 mM L-DOPA. This was followed by a one-hour incubation period while the temperature was maintained at 37 °C. A microplate reader was then used to detect the formation of dopachrome in the mixture at 490 nm. The findings are presented in terms of percentage of the control, while arbutin (0.2 mM) served as the positive control. Each test was carried out in triplicate, with the findings presented in the form of mean ± standard deviation.

Mitf = test: Western blot, MITF protein
Protocol: as §1

Trp-1 = test: qRT-PCR, Trp-1 mRNA; conditions: B16F10, 48 h
Protocol: A 6-well plate was used to seed B16F10 cells at 1 × 10^5 cells per well prior to overnight incubation in a 5% CO2 humid atmosphere at 37°C. […] Harvesting was conducted via removal of the supernatant, and the cells were rinsed twice in PBS (phosphate-buffered saline). The PureLink™RNA Mini Kit (Invitrogen™, USA) was then used to extract total RNA in line with the guidance of the manufacturer. RNA concentration was assessed at 260 nm with a NanoDrop 2000 UV-Vis spectrophotometer (Thermo Fisher Scientific, Inc.). Oligo-dT primers and a Precision nanoScript II Reverse Transcription Kit (PrimerDesign, Camberley, UK) were used to perform the reverse transcription of 1 µg of total RNA to cDNA in line with the guidance of the manufacturer. MyGo Pro®Real time PCR apparatus (IT-IS International Ltd., Stokesley, UK) was then used to perform the qRT-PCR assays in which 20 µL of PCR reaction contained 1 µL of cDNA, 7 µL of ultrapure water, 1 µL of each primer […], and 10 µL of 2×qPCRBIO SyGreen Mix (PCR Biosystems Ltd, London, UK). […] The relative gene expression level could then be calculated via the cycle threshold (Ct) value, while the role of endogenous control for data normalization was occupied by Gapdh (the housekeeping gene). […]

B16F10 melanoma cells = test: Cell viability assay (MTT); conditions: 72 h
Protocol: To perform the assay to establish cell viability, a 96-well plate was used for the seeding of the B16F10 cells at 5 × 10^3 cells/well. The cells were then left overnight to allow adherence. The VY-9 peptide at varying concentrations was then used to treat the cells for 72 h. MTT was produced as a 2.5 mg/mL solution in PBS whereupon 10 µL of this MTT solution was introduced to each well before incubating the plate for 4 h at 37 °C inside a humid 5% CO2 incubator. Following this step, the medium was removed the wells, and 200 µL of DMSO was added in its place. Finally, a microplate reader was employed to measure the absorbance for each of the wells at 540 nm, while arbutin (0.2 mM) served as the positive control. Each test was carried out in triplicate, with the findings presented in the form of mean ± standard deviation.

VDGYPAAGY [VY-9, Val-Asp-Gly-Tyr-Pro-Ala- Ala-Gly-Tyr]
TRP-2 protein level vs control (Trp-2; 0.2 µM): decreased slightly compared to the control
TRP-2 protein expression vs control (Trp-2; 1.6 µM): the expression of all proteins decreased compared to the control
concentration from which TRP-2 protein expression gradually decreased (Trp-2; western blot): 0.2 µM
cellular TYR activity, rate of inhibition [1]: 44.88%
MITF protein expression vs control (Mitf; 1.6 µM, B16F10, 48 h): the expression of all proteins decreased compared to the control
concentration from which MITF protein expression decreased (Mitf; B16F10, 48 h, western blot): 0.4 µM
MITF protein expression vs arbutin (Mitf; VY-9 1.6 µM vs arbutin 0.2 mM, 48 h): only MITF showed a lower expression level
Trp-1 mRNA expression vs control (Trp-1; 1.6 µM): significantly reduced the expression levels of all measured genes
concentration at which Trp-1 mRNA expression was reduced (highest only) (Trp-1; vs control): 1.6 µM
cytotoxicity in B16F10 cells (B16F10 melanoma cells; 0 to 1.6 µM (abstract: 0.2–1.6 µM)): negligible cytotoxicity; also recorded: no clear signs of cytotoxicity
B16F10 cell viability (B16F10 melanoma cells; 0 to 1.6 µM, triplicate): > 50%
